Data from US7285543B2, “Purine inhibitors of fructose-1,6-bisphosphatase” (Metabasis Therapeutics, Inc., priority 1997, dated 2007).

Columns and labels:
human liver FBPase = target: T1, human liver FBPase (Homo sapiens, UniProt P09467); test: Inhibition of human liver FBPase (coupled spectrophotometric assay); format: biochemical; settings: for inhibition of hlFBPase (FIG. 2): result in words
T1 construct: made in house; host or cells: E. coli BL21
T1 sequence (P09467 2-338 limits assumed): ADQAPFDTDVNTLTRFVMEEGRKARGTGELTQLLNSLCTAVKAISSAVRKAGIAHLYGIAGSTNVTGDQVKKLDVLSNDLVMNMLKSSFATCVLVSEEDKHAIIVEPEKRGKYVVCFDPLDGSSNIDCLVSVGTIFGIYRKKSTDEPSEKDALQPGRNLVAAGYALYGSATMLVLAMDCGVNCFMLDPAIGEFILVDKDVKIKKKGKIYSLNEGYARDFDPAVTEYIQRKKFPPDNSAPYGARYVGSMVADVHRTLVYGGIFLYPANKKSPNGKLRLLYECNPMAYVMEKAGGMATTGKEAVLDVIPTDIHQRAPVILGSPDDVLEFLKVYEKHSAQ

rat liver FBPase = target: T2, rat liver FBPase (Rattus norvegicus, UniProt P19112); test: In vitro inhibition of rat liver FBPase; format: biochemical
T2 construct: made in house; host or cells: E. coli BL21
T2 sequence (P19112 2-363 limits assumed): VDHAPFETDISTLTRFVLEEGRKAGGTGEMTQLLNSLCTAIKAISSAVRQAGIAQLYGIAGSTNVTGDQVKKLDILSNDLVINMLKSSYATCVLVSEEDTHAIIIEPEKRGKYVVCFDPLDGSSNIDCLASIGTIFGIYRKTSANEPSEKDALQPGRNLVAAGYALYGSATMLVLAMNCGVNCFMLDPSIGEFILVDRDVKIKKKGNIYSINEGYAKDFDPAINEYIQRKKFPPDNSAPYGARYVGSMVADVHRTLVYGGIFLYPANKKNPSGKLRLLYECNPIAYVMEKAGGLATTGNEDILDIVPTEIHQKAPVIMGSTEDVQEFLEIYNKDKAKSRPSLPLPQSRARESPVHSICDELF
Description: (§1) Mouse liver FBPase was obtained by homogenizing freshly isolated mouse liver in 100 mM Tris-HCl buffer, pH 7.4, containing 1 mM EGTA, and 10% glycerol. […] This fraction was redissolved in the homogenization buffer and desalted on a PD-10 gel filtration column (Biorad) eluted with same. This partially purified fraction was used for enzyme assays. Both rat liver and mouse liver FBPase were assayed as described for human liver FBPase.

mouse liver FBPase = target: T3, mouse liver FBPase (Mus musculus, UniProt Q9QXD6); test: In vitro inhibition of mouse liver FBPase; format: biochemical
T3 construct: This partially purified fraction was used for enzyme assays; from tissue; host or cells: mouse liver
T3 sequence (Q9QXD6 2-338 limits assumed): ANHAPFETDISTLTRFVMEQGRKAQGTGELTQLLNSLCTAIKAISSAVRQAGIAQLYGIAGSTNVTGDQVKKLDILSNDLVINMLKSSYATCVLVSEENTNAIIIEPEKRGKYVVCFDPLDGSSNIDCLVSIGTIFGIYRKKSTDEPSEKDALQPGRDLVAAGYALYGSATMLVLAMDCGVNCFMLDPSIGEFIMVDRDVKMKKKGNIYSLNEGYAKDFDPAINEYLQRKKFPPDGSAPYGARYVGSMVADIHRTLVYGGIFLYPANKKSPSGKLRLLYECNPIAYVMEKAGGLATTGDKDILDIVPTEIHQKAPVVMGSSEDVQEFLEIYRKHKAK
Description: as §1

rat hepatocytes = test: Inhibition of gluconeogenesis (glucose production from lactate/pyruvate) in rat hepatocytes; format: cell-based; settings: from lactate/pyruvate, isolated rat hepatocytes
Description: Hepatocytes were prepared from overnight fasted Sprague-Dawley rats (250-300 g) according to the procedure of Berry and Friend (Berry, M. N., Friend, D. S., J. Cell. Biol. 1969, 43, 506-520) as modified by Groen (Groen, […]., Eur. J. Biochem. 1982, 122, 87-93). […] Incubations were carried out in a 95% oxygen, 5% carbon dioxide atmosphere in closed, 50-mL Falcon tubes submerged in a rapidly shaking water bath (37° C.). After 1 hour, an aliquot (0.25 mL) was removed, transferred to an Eppendorf tube and centrifuged. 50 μl of supernatant was then assayed for glucose content using a Sigma Glucose Oxidase kit as per the manufacturer's instructions.

| SMILES | inhibition of hlFBPase (FIG. 2) (human liver FBPase) | IC50 (human liver FBPase) [µM] | IC50 (rat liver FBPase) [µM] | IC50 (mouse liver FBPase) [µM] | IC50 (rat hepatocytes; Hepatocyte) [µM] | IC50 (rat hepatocytes) [µM] |
| --- | --- | --- | --- | --- | --- | --- |
| CCn1c(-c2ccc(P(=O)(O)O)o2)nc2c(N)ncnc21 [Compound 2.5, N^9-ethyl-8-(2-(5-phosphono)furanyl)adenine] | dose-dependent inhibition |  |  |  |  |  |
| Nc1ncnc2c1nc(-c1ccc(P(=O)(O)O)o1)n2Cc1ccc2ccccc2c1 [Compound 2.3, N^9-(2-naphthylmethyl)-8-(2-(5-phosphono)furanyl)adenine] |  | 3.3 | > 20 | > 20 |  |  |
| CC(C)(CCl)Cn1c(-c2ccc(P(=O)(O)O)o2)nc2c(N)ncnc21 [Compound 2.14, N^9-(1-(3-chloro-2,2-dimethyl)propyl)-8-(2-(5-phosphono)-furanyl)adenine] |  | 0.9 | > 20 | > 20 | 7.5 |  |
| Nc1ncnc2c1ncn2[C@@H]1O[C@H](COP(=O)(O)O)[C@@H](O)[C@H]1O [AMP, reference compound] | dose-dependent inhibition | 1 |  |  |  |  |
| CC(C)(CO)Cn1c(-c2ccc(P(=O)(O)O)o2)nc2c(N)ncnc21 [Compound 2.13, N^9-(1-(3-hydroxyl-2,2-dimethyl)propyl)-8-(2-(5-phosphono)-furanyl)adenine] | dose-dependent inhibition | 4.5 |  | > 20 | 50 |  |
| Nc1ncnc2c1nc(-c1ccc(P(=O)(O)O)o1)n2C1CCCC1 [Compound 2.10, N^9-cyclopentyl-8-(2-(5-phosphono)furanyl)adenine] |  | 2 |  | > 20 | 24 |  |
| CC(C)Cn1c(-c2ccc(P(=O)(O)O)o2)nc2c(N)ncnc21 [Compound 2.6, N^9-isobutyl-8-(2-(5-phosphono)furanyl)adenine] |  |  |  |  |  | 18 |

Now from value to compound, other results behind:

| inhibition of hlFBPase (FIG. 2) (human liver FBPase) | IC50 (human liver FBPase) [µM] | IC50 (rat liver FBPase) [µM] | IC50 (mouse liver FBPase) [µM] | SMILES | IC50 (rat hepatocytes; Hepatocyte) [µM] | IC50 (rat hepatocytes) [µM] |
| --- | --- | --- | --- | --- | --- | --- |
|  | 50 | > 20 | > 20 | CN(C)c1ncnc2c1nc(-c1ccc(P(=O)(O)O)o1)n2CCc1ccccc1 [Compound 10.1, 6-Dimethylamino-N^9-phenethyl-8-(2-(5-phosphono)furanyl)purine] |  |  |
|  | 0.7 |  | > 20 | CSc1nc(N)c2nc(-c3ccc(P(=O)(O)O)o3)n(CC(C)C)c2n1 [Compound 11.1, 6-amino-N^9-isobutyl-2-methylthio-8-(2-(5-phosphono)-furanyl)purine] |  |  |
|  | 23 | > 20 | > 20 | Nc1ncnc2c1nc(SCP(=O)(O)O)n2CCC1CCCCC1 [Compound 8.1, N^9-(2-cyclohexylethyl)-8-(phosphonomethylthio)adenine] |  |  |
|  | 10 | > 20 | > 20 | CC(C)(C)Cn1c(COCP(=O)(O)O)nc2c(N)ncnc21 [Compound 5.5, N^9-neopentyl-8-(phosphonomethoxymethyl)-adenine] |  |  |
|  | 100 | > 20 | > 20 | Nc1ncnc2c1nc(NCCP(=O)(O)O)n2[C@@H]1O[C@H](CO)[C@@H](O)[C@H]1O [Compound 4.1, 8-(2-phosphonoethylamino)-adenosine] |  |  |
|  | 1.4 | > 20 | > 20 | CC1(C)C=CCC(C)(Cn2c(-c3ccc(P(=O)(O)O)o3)nc3c(N)ncnc32)C1 (centres unmarked) [Compound 2.16, N^9-(1,5,5-trimethyl-3-cyclohexenyl)methyl-8-(2-(5-phosphono)furanyl)-adenine] | 12 |  |
|  | 13 |  | > 100 | CC(C)(C)Cn1c(-c2oc(P(=O)(O)O)c(Cl)c2Cl)nc2c(N)ncnc21 [Compound 12.1, 6-amino-N^9-neopentyl-8-(2-(3,4-dichloro-5-phosphono)furanyl)purine] |  |  |
